In US12195482B1 (Arcus Biosciences, Inc., priority 2022, dated 2025):

Columns and labels:
recombinant human MER = biological target: T1, recombinant human MER (Homo sapiens, UniProt Q12866); test: Biochemical potency, HTRF KinEASE-TK kinase assay; conditions: 1 nM MER, 700 μM ATP
T1 construct: purchased Invitrogen
T1 sequence (Q12866 21-999): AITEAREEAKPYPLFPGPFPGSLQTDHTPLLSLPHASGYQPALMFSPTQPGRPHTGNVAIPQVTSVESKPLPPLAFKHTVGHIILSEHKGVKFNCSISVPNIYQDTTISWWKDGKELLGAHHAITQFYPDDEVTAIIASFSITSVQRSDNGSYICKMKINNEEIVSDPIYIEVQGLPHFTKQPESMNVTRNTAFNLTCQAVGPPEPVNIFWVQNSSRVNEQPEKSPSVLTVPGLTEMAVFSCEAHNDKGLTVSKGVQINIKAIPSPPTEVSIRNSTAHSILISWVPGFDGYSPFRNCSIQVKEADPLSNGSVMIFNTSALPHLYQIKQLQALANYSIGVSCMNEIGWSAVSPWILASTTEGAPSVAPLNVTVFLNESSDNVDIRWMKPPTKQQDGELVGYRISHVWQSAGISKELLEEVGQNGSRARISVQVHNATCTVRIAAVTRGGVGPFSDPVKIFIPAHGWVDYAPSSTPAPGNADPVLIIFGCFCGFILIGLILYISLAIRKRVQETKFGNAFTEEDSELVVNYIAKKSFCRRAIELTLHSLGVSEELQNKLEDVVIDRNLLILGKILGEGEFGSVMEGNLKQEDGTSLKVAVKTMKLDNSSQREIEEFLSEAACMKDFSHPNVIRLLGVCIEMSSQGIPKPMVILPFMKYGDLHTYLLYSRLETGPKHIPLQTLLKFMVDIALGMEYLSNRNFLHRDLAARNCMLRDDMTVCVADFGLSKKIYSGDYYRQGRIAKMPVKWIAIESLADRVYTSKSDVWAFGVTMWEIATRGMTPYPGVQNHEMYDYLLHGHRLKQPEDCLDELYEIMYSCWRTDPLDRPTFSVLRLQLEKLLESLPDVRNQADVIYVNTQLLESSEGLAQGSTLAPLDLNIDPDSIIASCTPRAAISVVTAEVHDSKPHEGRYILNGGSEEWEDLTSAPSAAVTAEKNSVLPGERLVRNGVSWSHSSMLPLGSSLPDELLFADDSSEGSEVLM
Procedure: Measurement of Biochemical Compound Potency of Axl Inhibitors
Purified recombinant human AXL, TYRO3 and MER proteins were purchased from Invitrogen™. 10 nM AXL, 2 nM TYRO3 or MER were incubated with varying concentrations of compounds in 50 mM HEPES, pH 7.4, 10 mM MgCl2, 0.01% BSA, 1 mM DTT and 2% DMSO in a total volume of 20 μl in a 384-well microplate (Corning™ #3640) at RT for 1 h. The AXL, TYRO3 and MER enzymatic reaction was initiated by transferring 10 μl of enzyme and compound mixture into 10 μl of 1.6 μM TK Substrate-biotin (HTRF® KinEASE-TK kit, Cisbio) and 1400 μM ATP pre-incubated in 50 mM HEPES, pH 7.4, 10 mM MgCl2, 0.01% BSA, 1 mM DTT in a 384-well microplate (Corning™ #3640) at RT, giving the final reaction conditions: 5 nM AXL, 1 nM TYRO3 or MER, 800 nM TK Substrate-biotin and 700 μM ATP in 50 mM HEPES, pH 7.4, 10 mM MgCl2, 0.01% BSA, 1 mM DTT and 1% DMSO with varying concentrations of compounds. Following 2 h incubation at RT, the AXL, TYRO3 and MER enzymatic reaction was stopped by transfer of 10 μl of reaction into 10 μl of detection mix (400 nM Streptavidin-XL665, 200-fold dilution TK Antibody-Cryptate and detection buffer, HTRF® KinEASE-TK kit, Cisbio) in a white 384-well microplate (Perkin Elmer, OptiPlate 384). After 1 h incubation at RT, the plate was put into a plate reader (Evision) to read at 665/620 nm (acceptor/donor) for HTRF. The value of the DMSO blank (MIN inhibition=100% activity) was used as a negative control. The positive control was established by adding 5 μl of enzyme and DMSO mixture into 10 μl of detection mix followed by addition of 5 μl of TK Substrate-biotin and ATP mixture (MAX inhibition=0% activity). To calculate the percent activity, Equation 1 was used. Ratio665/620 is the value at a given compound concentration: […]

p-AXL = biological target: T2, p-AXL (Homo sapiens, UniProt P30530); test: Axl phosphorylation inhibition ELISA in HEK293T cells transfected with NanoLuc-tagged AXL; format: cell-based; conditions: 1 h compound incubation, media (OptiMEM)
T2 construct: expressed in transfected cells; host or cells: HEK293T
T2 sequence (P30530 26-894): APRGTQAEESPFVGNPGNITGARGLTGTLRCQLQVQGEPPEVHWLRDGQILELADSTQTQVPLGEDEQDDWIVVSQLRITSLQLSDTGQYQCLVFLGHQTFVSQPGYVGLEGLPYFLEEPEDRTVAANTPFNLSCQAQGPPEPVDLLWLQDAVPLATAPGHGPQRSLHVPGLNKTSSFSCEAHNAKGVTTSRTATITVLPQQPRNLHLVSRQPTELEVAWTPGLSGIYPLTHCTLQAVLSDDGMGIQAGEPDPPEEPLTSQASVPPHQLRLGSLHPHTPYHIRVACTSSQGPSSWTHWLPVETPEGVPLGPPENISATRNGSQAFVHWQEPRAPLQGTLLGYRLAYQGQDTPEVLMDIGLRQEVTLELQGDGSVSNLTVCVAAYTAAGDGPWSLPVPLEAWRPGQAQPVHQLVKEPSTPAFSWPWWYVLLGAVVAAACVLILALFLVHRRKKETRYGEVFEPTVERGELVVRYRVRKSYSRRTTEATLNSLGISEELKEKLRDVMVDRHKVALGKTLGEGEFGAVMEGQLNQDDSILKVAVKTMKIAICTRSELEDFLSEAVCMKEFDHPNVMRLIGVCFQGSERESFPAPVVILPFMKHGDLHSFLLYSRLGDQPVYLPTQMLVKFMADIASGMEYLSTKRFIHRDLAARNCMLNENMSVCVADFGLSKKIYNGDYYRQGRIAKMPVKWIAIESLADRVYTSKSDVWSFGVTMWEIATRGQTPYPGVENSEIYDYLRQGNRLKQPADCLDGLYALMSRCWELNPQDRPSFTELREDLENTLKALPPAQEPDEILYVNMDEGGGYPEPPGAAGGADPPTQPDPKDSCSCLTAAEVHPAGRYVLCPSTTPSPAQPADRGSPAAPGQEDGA
Outline: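 HEK293T cells transiently transfected one day earlier with NanoLuc-tagged AXL were exposed to 22-point 2-fold compound dilutions for 1 h at 37° C (70,000 cells/well), then lysed. Lysates captured on anti-phospho-tyrosine coated plates for 2 h; bound p-AXL read by NanoLuc luminescence; IC50 from 4-parameter logistic fit.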

Axl = biological target: T3, Axl (Homo sapiens, UniProt P30530); test: Biochemical potency, HTRF KinEASE-TK kinase assay; design: purchased Invitrogen; conditions: 5 nM AXL, 700 μM ATP
T3 sequence (P30530 26-894): T2 sequence (P30530 26-894)
Outline: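 Compounds preincubated 1 h at RT with enzyme in 50 mM HEPES pH 7.4, 10 mM MgCl2, 0.01% BSA, 1 mM DTT; reactions then ran 2 h at RT with 5 nM AXL or 1 nM TYRO3/MER, 800 nM TK substrate-biotin, 700 μM ATP, 1% DMSO. HTRF 665/620 ratio read; percent activity calculated.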

SMILES | IC50 (recombinant human MER) [µM] | IC50 (p-AXL) [µM] | IC50 (Axl) [µM]
Cc1nccnc1-c1ccc(-c2n[nH]c3ncc(-c4ccc5c(c4)CC[C@@H](N4C6COCC4C6)CC5)cc23)nc1 [Example 55, 6-[(7S)-2-{3-[5-(3-Methylpyrazin-2-yl)pyridin-2-yl]-1H-pyrazolo[3,4-b]pyridin-5-yl}-6,7,8,9-tetrahydro-5H-benzo[7]annulen-7-yl]-3-oxa-6-azabicyclo[3.1.1]heptane] | > 1 | < 0.1 | < 0.1
Cc1ccc(C)c(-c2ccc(-c3n[nH]c4ncc(-c5ccc6c(c5)CC[C@@H](N5C7COC[C@H]5C7)CC6)cc34)nc2)n1 [Example 9, 3,6-Dimethyl-6′-{5-[(7S)-7-[(1R)-3-oxa-6-azabicyclo[3.1.1]heptan-6-yl]-6,7,8,9-tetrahydro-5H-benzo[7]annulen-2-yl]-1H-pyrazolo[3,4-b]pyridin-3-yl}-2,3′-bipyridine] | 0.1 to 1 | < 0.1 | < 0.1
Cc1cccnc1-c1ccc(-c2n[nH]c3ncc(-c4ccc5c(c4)CC[C@@H](N4C6COCC4C6)CC5)cc23)nn1 [Example 17, 6-[(7S)-3-[3-[6-(3-Methylpyridin-2-yl)pyridazin-3-yl]-1H-pyrazolo[3,4-b]pyridin-5-yl]-6,7,8,9-tetrahydro-5H-benzo[7]annulen-7-yl]-3-oxa-6-azabicyclo[3.1.1]heptane] | 0.1 to 1 | < 0.1 | < 0.1

Continued, values first:

IC50 (recombinant human MER) [µM] | IC50 (p-AXL) [µM] | IC50 (Axl) [µM] | SMILES
0.1 to 1 | 0.1 to 1 | < 0.1 | O=C1OCCN1c1nccnc1-c1ccc(-c2n[nH]c3ncc(-c4ccc5c(c4)CC[C@@H](N4C6COCC4C6)CC5)cc23)cc1 [Example 126, 3-[3-(4-{5-[(7S)-7-{3-Oxa-6-azabicyclo[3.1.1]heptan-6-yl}-6,7,8,9-tetrahydro-5H-benzo[7]annulen-2-yl]-1H-pyrazolo[3,4-b]pyridin-3-yl}phenyl)pyrazin-2-yl]-1,3-oxazolidin-2-one]
0.1 to 1 | < 0.1 | < 0.1 | Cc1cccnc1-n1cc(-c2n[nH]c3ncc(-c4ccc5c(c4)CC[C@@H](N4C6COCC4C6)CC5)cc23)cn1 [Example 79, 6-[(7S)-2-{3-[1-(3-Methylpyridin-2-yl)-1H-pyrazol-4-yl]-1H-pyrazolo[3,4-b]pyridin-5-yl}-6,7,8,9-tetrahydro-5H-benzo[7]annulen-7-yl]-3-oxa-6-azabicyclo[3.1.1]heptane]
